Literature values in patent publication US20250275953A1, “VODOBATINIB FOR REDUCING PROGRESSION OF PARKINSON'S DISEASE” (Sun Pharma Advanced Research Company Ltd., priority 2022, published 2025).

Details: nilotinib 150 and 300 mg; cited from earlier work

Compound: Cc1cn(-c2cc(NC(=O)c3ccc(C)c(Nc4nccc(-c5cccnc5)n4)c3)cc(C(F)(F)F)c2)cn1 [Nilotinib, nilotinib]
- efficacy in Parkinson's disease patients: not efficacious
